pIC50, pKi: −log10 of the molar value.

The target in one experiment is T1, DP receptor (Homo sapiens, UniProt Q13258).
T1 construct: expressed in transfected cells; host or cells: Chinese Hamster Ovary (CHO) cells, G418 selected
T1 sequence (Q13258 1-359): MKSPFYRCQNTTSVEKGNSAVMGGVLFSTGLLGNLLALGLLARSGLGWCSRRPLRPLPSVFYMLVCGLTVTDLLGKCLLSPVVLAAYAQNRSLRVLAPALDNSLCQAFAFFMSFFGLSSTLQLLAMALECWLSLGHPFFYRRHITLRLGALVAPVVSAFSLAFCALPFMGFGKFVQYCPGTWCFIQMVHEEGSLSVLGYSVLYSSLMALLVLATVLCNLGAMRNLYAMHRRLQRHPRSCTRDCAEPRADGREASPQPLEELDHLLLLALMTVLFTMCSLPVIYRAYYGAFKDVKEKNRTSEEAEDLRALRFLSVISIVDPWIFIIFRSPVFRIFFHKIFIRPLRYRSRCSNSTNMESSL
Briefly: [3H]PGD2 radioligand binding on CHO/DP cell membranes. The following applies: competition versus [3H]PGD2, CHO/DP membranes. As for the experimental part:
(§1) Chinese Hamster Ovary cells were transfected with CRTH2 or DP receptors (CHO/CRTH2 and CHO/DP) and were maintained in culture in a humidified atmosphere at 37° C. (5% CO2) in Minimum Essential Medium (MEM) supplemented with 10% foetal bovine serum, 2 mM glutamine, and 1 mg ml^−1 active G418. The cells were passaged every 2-3 days. For radioligand binding assay, cells were prepared in triple-layer flasks or in 175 cm^2 square flasks (for membrane preparation). For calcium mobilisation assay, cells were grown in a 96 well plate 24 h prior to the assay at a density of 80,000 cells per well.
(§2) Membranes were prepared either from CHO/CRTH2 and CHO/DP cells, or from platelets (as a source of TP receptors). CHO cells grown to confluency were washed with PBS and detached using a Versene solution (15 ml per flask). When the cells were grown in 175 cm^2 square flask, they were collected by scrapping in PBS. The cell suspensions were centrifuged (1,700 rpm, 10 min, 4° C.) and resuspended in 15 ml of buffer (1×HBSS, supplemented with 10 mM HEPES, pH 7.3). Cell suspensions were then homogenised using an Ultra Turrax at setting 4-6 for 20 s. The homogenate was centrifuged at 1,700 rpm for 10 min and the supernatant was collected and centrifuged at 20,000 rpm for 1 h at 4° C. The resulting pellet was resuspended in buffer and stored at −80° C. in aliquots of 200-500 μl. The protein concentration was determined by the method of Bradford (1976), using bovine serum albumin as standard. The platelets were washed by centrifugation at 600×g for 10 min and resuspended in ice-cold assay buffer (10 mM Tris-HCl, pH 7.4, 5 mM Glucose, 120 mM NaCl, 10 μM indomethacin) and directly centrifuged at 20,000 rpm for 30 min at 4° C. The resulting pellet was treated as described above.
(§3) [3H]PGD2 (160 Ci/mmol) binding experiments were performed on membranes prepared as described above. Assays were performed in a final volume of 100 μl of buffer (1×HBSS/HEPES 10 mM, pH 7.3). Cell membranes (15 μg). Cell membranes […] were preincubated at room temperature with varying concentration of competing ligand for 15 min. [3H]PGD2 ([…]) was then added and the incubation continued for a further one hour at room temperature. The reaction was terminated by the addition of 200 μl ice-cold assay buffer to each well, followed by rapid filtration through Whatman GF/B glass fibre filters using a Unifilter Cell harvester (PerkinElmer Life Sciences) and six washes of 300 μl of ice-cold buffer. The Unifilter plates were dried at room temperature for at least 1 h and the radioactivity retained on the filters was determined on a Beta Trilux counter (PerkinElmer Life Sciences), following addition of 40 μl of Optiphase Hi-Safe 3 (Wallac) liquid scintillation. Non specific binding was defined in the presence of […] unlabelled PGD2. Assays were performed in duplicate.

Experiment [1] concerns the target T2, CRTH2 (Homo sapiens, UniProt Q9Y5Y4).
T2 construct: expressed in transfected cells; host or cells: Chinese Hamster Ovary (CHO) cells, G418 selected
T2 sequence (Q9Y5Y4 1-395): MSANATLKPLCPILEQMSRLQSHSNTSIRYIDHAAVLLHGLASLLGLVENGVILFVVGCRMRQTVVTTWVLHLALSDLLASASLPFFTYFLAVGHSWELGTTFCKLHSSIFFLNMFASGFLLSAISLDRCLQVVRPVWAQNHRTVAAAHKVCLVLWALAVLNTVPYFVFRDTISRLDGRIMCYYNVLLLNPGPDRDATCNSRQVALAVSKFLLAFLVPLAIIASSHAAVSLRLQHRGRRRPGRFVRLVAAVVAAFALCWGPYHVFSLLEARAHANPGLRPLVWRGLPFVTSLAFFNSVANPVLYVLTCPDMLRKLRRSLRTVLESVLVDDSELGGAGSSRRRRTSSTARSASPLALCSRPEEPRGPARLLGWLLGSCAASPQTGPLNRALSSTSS
Briefly: [3H]PGD2 radioligand binding on CHO/CRTH2 cell membranes. The note with it: competition versus [3H]PGD2, CHO/CRTH2 membranes. As for the experimental part:
as §1, §2, §3

Experiment [2] has as its target T2, CRTH2. Briefly: Calcium mobilisation assay in CHO/CRTH2 cells (PGD2-induced calcium flux). The experiment is classed as cell-based. The note with it: inhibition of PGD2-induced calcium flux, read-out: CRTH2 Ca flux IC50. As for the experimental part:
as §1
Cells were seeded onto poly-D-lysine coated 96-well plates at a density of 80,000 cells per well and incubated at 37° C. overnight to allow the cells to adhere. Cells were washed twice with HBSS and incubated for 1 h at 37° C. in 100 μl HBSS and 100 μl calcium-3-dye (Molecular Devices) solution, supplemented with 4 mM probenecid. Changes in fluorescence were monitored over a 50 s time course with agonist addition at 17s using a Flexstation (Molecular Devices).

`Cc1c(S(=O)(=O)Nc2cccc(Cl)c2)c2cc(F)ccc2n1CC(=O)O` [Compound 12, [3-(3-Chloro-phenylsulfamoyl)-5-fluoro-2-methyl-indol-1-yl]-acetic acid]: the negative logarithm of the Ki (pKi) (commonly −log10 of the Ki, conventionally taken in molar units) at DP receptor is below 5.00; at CRTH2 [1] it was 7.35. In addition, the negative-log IC50 (pIC50) – broadly, −log10 of the IC50, conventionally taken in molar units – on CRTH2 [2] is 7.09.

Turning to `Cc1cccc(NS(=O)(=O)c2c(C)n(CC(=O)O)c3ccc(F)cc23)c1` [Compound 21, (5-Fluoro-2-methyl-3-m-tolylsulfamoyl-indol-1-yl)-acetic acid], the pKi was below 5.00 at DP receptor and 6.75 at CRTH2 [1]. Moreover, at CRTH2 [2], the negative logarithm of the IC50 (pIC50) was 5.97.

Values taken from patent publication US20070232681A1, “Compounds Having Crth2 Antagonist Activity” (Oxagen Limited, priority 2003, published 2007).
